Among the data in ChEMBL document CHEMBL1131943, “Inhibition of 4-hydroxyphenylpyruvate dioxygenase by sethoxydim, a potent inhibitor of acetyl-coenzyme A carboxylase” (Bioorg Med Chem Lett, 1999) are IC50, Ki and IC100 values, retold here.

Assay [1] has as its target T1, 4-hydroxyphenylpyruvate dioxygenase (Sus scrofa, UniProt Q02110). The assay is described as follows: The inhibitory activity on pig liver 4-hydroxyphenylpyruvate dioxygenase (HPPD) was evaluated.
Assay [2] deals with T1, 4-hydroxyphenylpyruvate dioxygenase. The assay is described as follows: Inhibitory activity on pig liver 4-hydroxyphenylpyruvate dioxygenase (HPPD) was evaluated.
Assay [3] shares this target. Kind of assay: Compound was evaluated for competitive inhibition of 4-hydroxyphenylpyruvate dioxygenase (HPPD) (complete inhibition was observed at a concentration of 0.5-1.0 mM).
Assay [4] deals with 4-hydroxyphenylpyruvate dioxygenase (Sus scrofa) (UniProt Q02110). The assay is described as follows: Compound was evaluated for complete competitive inhibition of 4-hydroxyphenylpyruvate dioxygenase (HPPD).
Sequence of 4-hydroxyphenylpyruvate dioxygenase (Sus scrofa) (Q02110 2-393 limits assumed): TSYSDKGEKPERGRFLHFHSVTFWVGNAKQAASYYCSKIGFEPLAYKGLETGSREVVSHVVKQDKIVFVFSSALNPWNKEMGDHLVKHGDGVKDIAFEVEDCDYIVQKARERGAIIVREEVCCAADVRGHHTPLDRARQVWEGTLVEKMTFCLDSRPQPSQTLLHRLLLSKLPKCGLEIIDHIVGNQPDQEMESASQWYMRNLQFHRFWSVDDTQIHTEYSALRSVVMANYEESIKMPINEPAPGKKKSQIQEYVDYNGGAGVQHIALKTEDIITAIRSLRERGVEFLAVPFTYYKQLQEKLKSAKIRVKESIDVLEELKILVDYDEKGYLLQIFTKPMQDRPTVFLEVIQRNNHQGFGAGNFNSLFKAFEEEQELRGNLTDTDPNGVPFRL

T1 sequence (Q02110 whole entry): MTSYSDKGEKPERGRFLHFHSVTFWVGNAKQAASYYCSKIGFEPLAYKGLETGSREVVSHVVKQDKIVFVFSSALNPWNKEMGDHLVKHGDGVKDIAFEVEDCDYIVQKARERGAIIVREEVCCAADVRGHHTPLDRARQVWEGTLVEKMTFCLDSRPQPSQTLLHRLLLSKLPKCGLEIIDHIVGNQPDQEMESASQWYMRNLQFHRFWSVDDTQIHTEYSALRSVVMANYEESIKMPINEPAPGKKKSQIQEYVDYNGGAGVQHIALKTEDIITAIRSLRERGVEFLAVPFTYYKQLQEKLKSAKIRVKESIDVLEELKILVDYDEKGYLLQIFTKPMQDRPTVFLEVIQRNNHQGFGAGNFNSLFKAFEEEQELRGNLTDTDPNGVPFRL

As usually defined, the IC50 is the midpoint of a concentration-inhibition curve. For `O=C1CCCC(=O)C1=C(O)c1ccc(C(F)(F)F)cc1[N+](=O)[O-]`, the IC50 in assay [1] is 40 nM.
Take `CS(=O)(=O)c1ccc(C(O)=C2C(=O)CCCC2=O)c(Cl)c1`: 45 nM corresponded to half-maximal inhibition in assay [2] (IC50).
As usually defined, the Ki is a measure of affinity in units of concentration, obtained from inhibition or displacement. High values mean weaker binding, low ones tighter binding. The molecule `CCC/C(=N\OCC)C1=C(O)CC(CC(C)SCC)CC1=O` (centres undefined) [SETHOXYDIM] showed a Ki in assay [3] of 300000 nM. Further, the IC100 in assay [4] stood at 1 mM.
